Results as given in the NIST ThermoML archive (doi:10.1021/je030130y).

Assays:
[1] = 101.3 kPa, Liquid; for viscosity: Capillary tube (Ostwald / Ubbelohde) method; for mass density: Pycnometric method
[2] = xn = mol fraction of the nth substance listed; settings: 101.3 kPa, Liquid; for viscosity: Capillary tube (Ostwald / Ubbelohde) method; for mass density: Pycnometric method

c1ccccc1 [benzene]
[1]
Settings	mass density [kg/m3]	viscosity [mPa·s]
298.15 K	873.4	0.603
303.15 K	868.2	0.568
308.15 K	862.9	0.531
313.15 K	857.4	0.5

c1ccccc1 [benzene] + CN(C)C=O
[2], x2 = 0
Settings	mass density [kg/m3]	viscosity [mPa·s]
298.15 K	873.4	0.603
303.15 K	868.2	0.568
308.15 K	862.9	0.531
313.15 K	857.4	0.5

c1ccccc1 [benzene] + Clc1ccccc1
[2], x1 = 1
Settings	mass density [kg/m3]	viscosity [mPa·s]
298.15 K	873.4	0.603
303.15 K	868.2	0.568
308.15 K	862.9	0.531
313.15 K	857.4	0.5

Clc1ccccc1 [chlorobenzene]
[1]
Settings	mass density [kg/m3]	viscosity [mPa·s]
298.15 K	1100.9	0.756
303.15 K	1095.8	0.714
308.15 K	1090.8	0.673
313.15 K	1085.1	0.635

CN(C)C=O [dimethylformamide]
[1]
Settings	mass density [kg/m3]	viscosity [mPa·s]
298.15 K	944.5	0.803
303.15 K	939.8	0.756
308.15 K	935.1	0.71
313.15 K	930.2	0.673

CN(C)C=O [dimethylformamide] + Clc1ccccc1
[2], x1 = 1
Settings	mass density [kg/m3]	viscosity [mPa·s]
298.15 K	944.5	0.803
303.15 K	939.8	0.756
308.15 K	935.1	0.71
313.15 K	930.2	0.673
